Assay results: a melting point compilation (Tetko et al.; mined from patent text by program, amines drawn as free bases though some values may be those of a salt)

| SMILES | melting point |
| --- | --- |
| CC(C)(C)c1nc2c(Cl)ccc(C(=O)O)c2o1 | 209 to 210 °C |
| CN1CCOc2nc(Cl)c(Cl)nc21 | 170 to 172 °C |
| O=c1[nH]c2cc(Cl)ccc2c(O)c1-c1ccc(/C=C\c2ccccc2)cc1 | 284 to 286 °C |
| COc1ccc(C(=O)c2cn3c4c(cccc24)OCC3CN2CCOCC2)cc1 (stereo unspecified) | 209 to 214 °C |
| CC1=CC=C[C@@H](O)[C@H]1O | 56 to 57 °C |
| CCCCCCCCCCCCCCOc1cc(OC)cc(N)c1OCOC | 66 to 67 °C |
| O=C(C1NCCc2occc21)N1CCCC1 (stereo unspecified) | 85 to 86 °C |
| CCCCCCCCCC(O)CNCCCNCC(O)CCCCCCCCC (stereo unspecified) | 94 to 103 °C |
| Cc1ccc(S(=O)(=O)OCC2Cc3cccc(-c4ccc(F)cc4F)c3O2)cc1 (stereo unspecified) | 116 to 118 °C |
| CCCCCCCCCCCCCc1ccc(-c2nc(-c3ccccc3Cl)nn2C)cc1 | 55 to 57 °C |
| CC#CC(C)(C)N(C)C(=O)C(CC)Oc1cncc(Cl)c1 (stereo unspecified) | 67 to 68 °C |
| Cc1nc2ccccn2c1C1=NNC(=O)CO1 | 278 to 280 °C |
| CN1Cc2ccccc2C(O)(Cc2ccc(Cl)cc2F)C1 (stereo unspecified) | 113 to 116 °C |
| CC(C)(C)c1cc(Br)c2cc(C(C)(C)C)cc(Br)c2c1 | 226 °C |
| C#Cc1ccc2c(c1)C(c1ccccc1F)=NC(C)c1c(C(=O)OCC)ncn1-2 (stereo unspecified) | 212 to 214 °C |
| Cc1nc2c3c(c(CO)cc2n1C)CCC(c1ccccc1)N3 (stereo unspecified) | 253 to 254 °C |
| c1ccc(C2(c3ccccc3)SCCS2)cc1 | 104 to 105 °C |

The remaining lines, values ahead:

| melting point | SMILES |
| --- | --- |
| 194 to 196 °C | O=C1COc2ccc3ccccc3c21 |
| 178 to 179 °C | COC(=O)N[C@H](C(=O)N[C@@H](Cc1ccccc1)[C@@H](O)CN(Cc1ccc(-c2nccs2)cc1)NC(=O)OC(C)(C)C)C(C)C |
| 258 to 259 °C | O=C(O)CCc1ccnc(-c2nc(=O)c3ccc(Br)cc3s2)c1 |
| 122 to 124 °C | Cc1nn(C(C)C(=O)N(C)C)c(C)c1-c1ccccc1 (stereo unspecified) |
| 164 to 166 °C | Cc1ccc(-c2nc3c(O)cccc3s2)cc1 |
| 177 to 179 °C | CC1=NC(NC(=O)Nc2cccc(C)c2)C(=O)N(CC(=O)N2CC3CCC(CC3)C2)c2c(C)cccc21 (stereo unspecified) |
| 132 to 133 °C | COc1cccc(CC(=O)O)c1OCCCc1cn(-c2ccc(C#N)nn2)nc1C(C)C |
| 208 °C | COc1cc(C=CC(=O)Nc2ccccc2C(=O)O)ccc1O |
| 177 to 178 °C | CCc1ccc(C(=O)N[C@@H]2CCc3cccc(N4CCN(C)CC4)c3C2)cc1 |
| 108 °C | CCOC(=O)C=C(Nc1ccc(O)c(=O)cc1)C(=O)OCC |
| 126 to 128 °C | CCOC(=O)c1cccc(NC(=O)N2CCn3c(c(C(N)=O)c(Cl)c3-c3ccccc3)C2)c1 |
| 126 to 128 °C | COc1cc(OCc2ccccn2)ccc1/C=C/C(=O)CC(=O)/C=C/c1cc2ccccc2o1 |
| 195 to 196 °C | CC(=O)N[C@H]1CC[C@H](c2ccc(N)cc2)CC1 |
| 138 to 139 °C | CC(=O)N(CC(C)C)C1NC(=O)N(c2cccs2)C(=O)N1 |
| 90 to 92 °C | CC(C)C(O)CN1N=C(c2ccc(Cl)cc2)CCC1=O (stereo unspecified) |
| 94 to 96 °C | O=C(Cc1ccccc1)c1ccncc1 |
| 186 to 188 °C | CCOc1nc2c(cc1C)C(=O)c1ccccc1C2=O |
| 135 °C | O=C(Oc1ccccc1)c1ccccc1S |
| 219 to 221 °C | COc1ccccc1/C=C/C(=O)Nc1cccc(NC(=N)c2ccccc2)c1 |
| 249 °C | COc1cc(OC)c(-c2nc(NC(=O)c3cc4ccccc4[nH]3)sc2C)cc1Cl |
| 49.5 to 50 °C | CCCCCCCCCCCCOC(C)c1ccc(C(=O)O)cc1 (single isomer, unassigned; (+)) |
| 163 to 164 °C | Cc1nc(-n2ccn(Cc3ccc(C(F)(F)F)cc3)c2=O)sc1C(=O)NCc1cccnc1 |
| 209 to 210 °C | O=C(O)c1ccc(NCCOc2ccc(F)cc2)cc1 |
| 127 °C | Cc1coc(C(=O)c2ccc(F)c(F)c2Nc2ccc(I)cc2F)n1 |
